For the test, the target named is T1, Bromodomain-containing protein 4 [58-164] (Homo sapiens, UniProt O60885).
T1 construct: 58-164
Put plainly: Fluorescence Anisotropy Binding Assay. As for the experimental part:
Binding affinity of the newly synthesized compounds to the BRD4 BrD1 was assessed in a fluorescence anisotropy assay using a fluorescein isothiocyanate (FITC)-labeled MS417 as an assay probe (Zhang et al. 2008 op.cit.). Competition binding was performed with a BrD protein (0.25 to 1 μM) and the fluorescent probe (80 nM), and increasing concentration of unlabeled competing ligand in a PBS buffer (pH 7.4) in total volume of 80 μL. Measurements were obtained after 1 hour incubation of the fluorescent ligand and the protein at 25° C. with Safire 2 microplate reader (Tecan). In the assay, fluorescent ligand concentration was ≤2Kd, and protein concentration was set at which 50-80% of fluorescent ligand is bound. Dissociation constant of a competing ligand was calculated with the correction to Cheng-Prussoff equation introduced by Nicolovska-Coleska and colleagues [Nikolovska-Coleska, Z. et al., Anal Biochem 332, 261-273 (2004).
In general terms: Polarisation of emitted light reports the rotation of a fluorescent probe.

What is called Kd is the equilibrium constant for the complex coming apart. With `COc1ccc2c(c1)n(Cc1ccccc1C)c(=N)n2CC(O)c1ccc(Cl)c(Cl)c1` (stereo unspecified) [US12473263, Example 1], the equilibrium dissociation constant (Kd) turned out to be 694 nM. This lies in the sub-micromolar range. The figure for `Cc1ccccc1Cn1c(=N)n(CC(O)c2ccc(Cl)c(Cl)c2)c2ccc(F)cc21` (stereo unspecified) [US12473263, Example 2] is 269 nM; for `Cc1ccccc1Cn1c(=N)n(CC(O)c2ccc(Cl)c(Cl)c2)c2ccc(Cl)cc21` (stereo unspecified) [US12473263, Example 3] it is 503 nM.

Consider `Cc1ccccc1Cc1cn(C[C@H](O)c2ccc(Cl)c(Cl)c2)c2ccccc12` [US12473263, Example 4], for which the Kd is 640 nM. The figure for `Cc1ccccc1Cn1cc(Cn2c(=N)n(CC(O)c3ccc(Cl)c(Cl)c3)c3ccccc32)nn1` (stereo unspecified) [US12473263, Example 7] is 551 nM; for `Cc1cccc(Cn2cc(Cn3c(=N)n(CC(O)c4ccc(Cl)c(Cl)c4)c4ccccc43)nn2)c1` (stereo unspecified) [US12473263, Example 8] it is 556 nM.

As to `N=c1n(Cc2cn(Cc3ccccc3F)nn2)c2ccccc2n1CC(O)c1ccc(Cl)c(Cl)c1` (stereo unspecified) [US12473263, Example 10], binding was characterised by a dissociation constant (Kd) of 371 nM. `N=c1n(Cc2cn(Cc3cccc(F)c3)nn2)c2ccccc2n1CC(O)c1ccc(Cl)c(Cl)c1` (stereo unspecified) [US12473263, Example 11] came in with a Kd of 548 nM. For `N=c1n(Cc2cn(Cc3ccc(F)cc3)nn2)c2ccccc2n1CC(O)c1ccc(Cl)c(Cl)c1` (stereo unspecified) [US12473263, Example 12], binding was put at a Kd of 3860 nM.

Take `N=c1n(Cc2cn(-c3ccccc3)nn2)c2ccccc2n1CC(O)c1ccc(Cl)c(Cl)c1` (stereo unspecified) [US12473263, Example 13]: binding was put at a Kd of 65 nM. Compound `N=c1n(Cc2cn(CCc3ccccc3)nn2)c2ccccc2n1CC(O)c1ccc(Cl)c(Cl)c1` (stereo unspecified) [US12473263, Example 15] yielded an equilibrium dissociation constant (Kd) of 354 nM.

Source of the values: BindingDB's records for patent US12473263 (Icahn School Of Medicine At Mount Sinai, 2025).
